Data as given in PubChem BioAssay AID651630 (Sanford-Burnham Center for Chemical Genomics, 2012).
Activity calls are given as the source filed them.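 The calls were made as follows: active = lipid-stain IC50 at or below a set limit, with nuclear-stain toxicity IC50 at least five times higher; inactive = the rest.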

Assays:
[1] = test system: TAG; assay: triacylglycerol accumulation inhibitor potency, dose response, cell-based, panel, Nile Red and DAPI fluorescence, H9c2 (AID 651630); conditions: H9c2 cells, Nile Red TAG fluorescence, oleic acid;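 also: cells exposed to compound overnight before fixation and staining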
[2] = test system: DAPI; assay: as above; conditions: H9c2 cells, DAPI nuclear fluorescence (cytotoxicity counter-readout), oleic acid

For `COc1cc(C#Cc2c(-c3cncn3C)n(C)c3ccc(-c4ccc5[nH]ccc5c4)cc23)cc(OC)c1`, the IC50 ([1]; mean of runs) was 4.19 µM, the IC50 ([1]; run 1) was 3.78 µM and the IC50 ([1]; run 2) was 4.6 µM. The IC50 cytotoxicity (DAPI nuclear signal decrease) ([2]; run 1) was greater than 25 µM and the IC50 cytotoxicity (DAPI nuclear signal decrease) ([2]; run 2) was greater than 25 µM.
For `CCN(CC)CCCN(C(=O)c1cccs1)c1nc(-c2ccc(OC)cc2)cs1`, the IC50 ([1]; mean of runs) was 10.3 µM, the IC50 ([1]; run 1) was 10.5 µM and the IC50 ([1]; run 2) was 10 µM. The IC50 cytotoxicity (DAPI nuclear signal decrease) ([2]; mean of runs) was > 25 µM (inactive), the IC50 cytotoxicity (DAPI nuclear signal decrease) ([2]; run 1) was greater than 25 µM and the IC50 cytotoxicity (DAPI nuclear signal decrease) ([2]; run 2) was greater than 25 µM.
In the case of `CCCCCCSc1cc(-c2nc3ccc(Cl)cn3c2NC2CCCCC2)ccc1OC`, the IC50 ([1]; mean of runs) is reported as 22.6 µM (inactive), the IC50 ([1]; run 1) is reported as 20.4 µM and the IC50 ([1]; run 2) is reported as 24.7 µM. The IC50 cytotoxicity (DAPI nuclear signal decrease) ([2]; mean of runs) was > 25 µM (inactive), the IC50 cytotoxicity (DAPI nuclear signal decrease) ([2]; run 1) was greater than 25 µM and the IC50 cytotoxicity (DAPI nuclear signal decrease) ([2]; run 2) was greater than 25 µM.
`COc1ccc(NC(=O)N(C)[C@H]2C[C@H]3c4[nH]c5ccc(-c6ccc7c(c6)OCO7)cc5c4CCN3C[C@H]2[C@H](C)O)cc1` showed an IC50 ([1]; mean of runs) of 7.49 µM, an IC50 ([1]; run 1) of 8.2 µM and an IC50 ([1]; run 2) of 6.77 µM. For the same molecule, the IC50 cytotoxicity (DAPI nuclear signal decrease) ([2]; mean of runs) was > 25 µM (inactive), the IC50 cytotoxicity (DAPI nuclear signal decrease) ([2]; run 1) was greater than 25 µM and the IC50 cytotoxicity (DAPI nuclear signal decrease) ([2]; run 2) was greater than 25 µM.
Molecule `CCOC(=O)[C@@H]1[C@H]2COc3ccc(Br)cc3[C@@H]2N2C(=O)N(c3ccc(C(F)(F)F)cc3)C(=O)[C@@]12C` has an IC50 ([1]; mean of runs) of 3.24 µM, an IC50 ([1]; run 1) of 2.27 µM and an IC50 ([1]; run 2) of 4.21 µM. For the same molecule, the IC50 cytotoxicity (DAPI nuclear signal decrease) ([2]; run 1) was greater than 25 µM and the IC50 cytotoxicity (DAPI nuclear signal decrease) ([2]; run 2) was greater than 25 µM.
With `COc1ccc(CCn2c(-n3nc(C)cc3C)nc3c2c(=O)[nH]c(=O)n3C)cc1` the IC50 ([1]; mean of runs) was > 25 µM (inactive), the IC50 ([1]; run 1) was greater than 25 µM and the IC50 ([1]; run 2) was greater than 25 µM. The IC50 cytotoxicity (DAPI nuclear signal decrease) ([2]; mean of runs) was > 25 µM (inactive), the IC50 cytotoxicity (DAPI nuclear signal decrease) ([2]; run 1) was greater than 25 µM and the IC50 cytotoxicity (DAPI nuclear signal decrease) ([2]; run 2) was greater than 25 µM.
In the case of `COc1ccc(-c2cc3nc(-c4ccccc4)cc(N4CCN(C(=O)c5ccccc5)CC4)n3n2)cc1`, the IC50 ([1]; mean of runs) is reported as > 25 µM (inactive), the IC50 ([1]; run 1) is reported as greater than 25 µM and the IC50 ([1]; run 2) is reported as greater than 25 µM. The IC50 cytotoxicity (DAPI nuclear signal decrease) ([2]; mean of runs) was > 25 µM (inactive), the IC50 cytotoxicity (DAPI nuclear signal decrease) ([2]; run 1) was greater than 25 µM and the IC50 cytotoxicity (DAPI nuclear signal decrease) ([2]; run 2) was greater than 25 µM.
With `C[C@]12c3[nH]c4ccccc4c3CCN1C(=O)C(CC(=O)NCC13CC4CC(CC(C4)C1)C3)C[C@@H]2C(=O)N1CCCCC1` (stereo partly drawn) the IC50 ([1]; mean of runs) was 14.6 µM, the IC50 ([1]; run 1) was 14.8 µM and the IC50 ([1]; run 2) was 14.4 µM. The IC50 cytotoxicity (DAPI nuclear signal decrease) ([2]; mean of runs) was > 25 µM (inactive), the IC50 cytotoxicity (DAPI nuclear signal decrease) ([2]; run 1) was greater than 25 µM and the IC50 cytotoxicity (DAPI nuclear signal decrease) ([2]; run 2) was greater than 25 µM.
With `Cc1nn2c(N3CCN(C)CC3)c3c(nc2c1-c1ccccc1)CCCC3` the IC50 ([1]; mean of runs) was > 25 µM (inactive), the IC50 ([1]; run 1) was greater than 25 µM and the IC50 ([1]; run 2) was greater than 25 µM. The IC50 cytotoxicity (DAPI nuclear signal decrease) ([2]; mean of runs) was > 25 µM (inactive), the IC50 cytotoxicity (DAPI nuclear signal decrease) ([2]; run 1) was greater than 25 µM and the IC50 cytotoxicity (DAPI nuclear signal decrease) ([2]; run 2) was greater than 25 µM.
In the case of `C[C@H]1CN([C@@H](C)CO)C(=O)Cc2cc(NC(=O)CCC(F)(F)F)ccc2O[C@H]1CN(C)S(=O)(=O)c1ccc(Cl)cc1`, the IC50 ([1]; mean of runs) is reported as > 25 µM (inactive), the IC50 ([1]; run 1) is reported as greater than 25 µM and the IC50 ([1]; run 2) is reported as greater than 25 µM. For the same molecule, the IC50 cytotoxicity (DAPI nuclear signal decrease) ([2]; mean of runs) was > 25 µM (inactive), the IC50 cytotoxicity (DAPI nuclear signal decrease) ([2]; run 1) was greater than 25 µM and the IC50 cytotoxicity (DAPI nuclear signal decrease) ([2]; run 2) was greater than 25 µM.
In the case of `CCC(C)NCCOCCOc1ccc(Cl)c2ccccc12` (stereo not drawn), the IC50 ([1]; run 1) is reported as greater than 25 µM, the IC50 ([1]; run 2) is reported as 17.7 µM and the IC50 cytotoxicity (DAPI nuclear signal decrease) ([2]; mean of runs) is reported as > 25 µM (inactive). For the same molecule, the IC50 cytotoxicity (DAPI nuclear signal decrease) ([2]; run 1) was greater than 25 µM and the IC50 cytotoxicity (DAPI nuclear signal decrease) ([2]; run 2) was greater than 25 µM.
In the case of `Cc1ccc2c(=O)n3c(nc2c1)C(Cc1ccc(O)cc1)NC(=O)c1cc2ccccc2cc1-3` (stereo not drawn), the IC50 ([1]; mean of runs) is reported as > 25 µM (inactive), the IC50 ([1]; run 1) is reported as greater than 25 µM and the IC50 ([1]; run 2) is reported as greater than 25 µM. For the same molecule, the IC50 cytotoxicity (DAPI nuclear signal decrease) ([2]; mean of runs) was > 25 µM (inactive), the IC50 cytotoxicity (DAPI nuclear signal decrease) ([2]; run 1) was greater than 25 µM and the IC50 cytotoxicity (DAPI nuclear signal decrease) ([2]; run 2) was greater than 25 µM.
For `CN(C)c1ccc(NC(=O)Nc2nc(C(N)C3CCCCC3)cs2)cc1` (stereo not drawn), the IC50 ([1]; mean of runs) was > 25 µM (inactive), the IC50 ([1]; run 1) was greater than 25 µM and the IC50 ([1]; run 2) was greater than 25 µM. The IC50 cytotoxicity (DAPI nuclear signal decrease) ([2]; mean of runs) was > 25 µM (inactive), the IC50 cytotoxicity (DAPI nuclear signal decrease) ([2]; run 1) was greater than 25 µM and the IC50 cytotoxicity (DAPI nuclear signal decrease) ([2]; run 2) was greater than 25 µM.
`O=C(Nc1ccc(S(=O)(=O)N2CCOCC2)cc1)c1ccc([N+](=O)[O-])s1` showed an IC50 ([1]; mean of runs) of 10.9 µM, an IC50 ([1]; run 1) of 13.1 µM and an IC50 ([1]; run 2) of 8.75 µM. For the same molecule, the IC50 cytotoxicity (DAPI nuclear signal decrease) ([2]; mean of runs) was > 25 µM (inactive), the IC50 cytotoxicity (DAPI nuclear signal decrease) ([2]; run 1) was greater than 25 µM and the IC50 cytotoxicity (DAPI nuclear signal decrease) ([2]; run 2) was greater than 25 µM.
`CCC(C)(C)NC(=O)C(c1ccc(C)cc1)N(Cc1ccco1)C(=O)CCC(=O)Nc1nccs1` (stereo not drawn) showed an IC50 ([1]; mean of runs) of 6.82 µM, an IC50 ([1]; run 1) of 4.82 µM and an IC50 ([1]; run 2) of 8.81 µM. For the same molecule, the IC50 cytotoxicity (DAPI nuclear signal decrease) ([2]; mean of runs) was > 25 µM (inactive), the IC50 cytotoxicity (DAPI nuclear signal decrease) ([2]; run 1) was greater than 25 µM and the IC50 cytotoxicity (DAPI nuclear signal decrease) ([2]; run 2) was greater than 25 µM.
`CC(C)CC(N)c1csc(NC(=O)Nc2ccccc2Cc2ccccc2)n1` (stereo not drawn) was tested, and the IC50 ([1]; mean of runs) was > 25 µM (inactive), the IC50 ([1]; run 1) was greater than 25 µM and the IC50 ([1]; run 2) was greater than 25 µM. The IC50 cytotoxicity (DAPI nuclear signal decrease) ([2]; run 1) was 20.4 µM and the IC50 cytotoxicity (DAPI nuclear signal decrease) ([2]; run 2) was greater than 25 µM.
`CNCCCN1c2ccccc2CCc2ccccc21` was tested, and the IC50 ([1]; mean of runs) was > 25 µM (inactive), the IC50 ([1]; run 1) was greater than 25 µM and the IC50 ([1]; run 2) was greater than 25 µM. For the same molecule, the IC50 cytotoxicity (DAPI nuclear signal decrease) ([2]; mean of runs) was > 25 µM (inactive), the IC50 cytotoxicity (DAPI nuclear signal decrease) ([2]; run 1) was greater than 25 µM and the IC50 cytotoxicity (DAPI nuclear signal decrease) ([2]; run 2) was greater than 25 µM.
For `Cc1ccc(/C=N/NC(=O)c2c(C)nc3ccc(Br)cn23)cc1`, the IC50 ([1]; mean of runs) was > 25 µM (inactive), the IC50 ([1]; run 1) was greater than 25 µM and the IC50 ([1]; run 2) was greater than 25 µM. The IC50 cytotoxicity (DAPI nuclear signal decrease) ([2]; mean of runs) was > 25 µM (inactive), the IC50 cytotoxicity (DAPI nuclear signal decrease) ([2]; run 1) was greater than 25 µM and the IC50 cytotoxicity (DAPI nuclear signal decrease) ([2]; run 2) was greater than 25 µM.
For `CCOC(=O)c1[nH]c(C)c(C(=O)Nc2ccccc2C)c1C`, the IC50 ([1]; mean of runs) was > 25 µM (inactive), the IC50 ([1]; run 1) was greater than 25 µM and the IC50 ([1]; run 2) was greater than 25 µM. For the same molecule, the IC50 cytotoxicity (DAPI nuclear signal decrease) ([2]; mean of runs) was > 25 µM (inactive), the IC50 cytotoxicity (DAPI nuclear signal decrease) ([2]; run 1) was greater than 25 µM and the IC50 cytotoxicity (DAPI nuclear signal decrease) ([2]; run 2) was greater than 25 µM.
In the case of `COc1ccc(C2NCCc3c2[nH]c2ccccc32)cc1CSc1nc2ccccc2s1` (stereo not drawn), the IC50 ([1]; mean of runs) is reported as > 25 µM (inactive), the IC50 ([1]; run 1) is reported as greater than 25 µM and the IC50 ([1]; run 2) is reported as greater than 25 µM. The IC50 cytotoxicity (DAPI nuclear signal decrease) ([2]; run 1) was greater than 25 µM and the IC50 cytotoxicity (DAPI nuclear signal decrease) ([2]; run 2) was 24.6 µM.
With `CCCCCc1cc(=O)oc2c(C(CCN3CCCC3)c3cc(OC)c(OC)c(OC)c3)c(OC)cc(OC)c12` (stereo not drawn) the IC50 ([1]; run 1) was greater than 25 µM, the IC50 ([1]; run 2) was 17.4 µM and the IC50 cytotoxicity (DAPI nuclear signal decrease) ([2]; mean of runs) was 20.2 µM (inactive). For the same molecule, the IC50 cytotoxicity (DAPI nuclear signal decrease) ([2]; run 1) was 20.1 µM and the IC50 cytotoxicity (DAPI nuclear signal decrease) ([2]; run 2) was 20.2 µM.
For `CCOCCC(=O)Nc1ccc2c(c1)c(=O)n(C)n2-c1ccc2ccccc2c1`, the IC50 ([1]; mean of runs) was > 25 µM (inactive), the IC50 ([1]; run 1) was greater than 25 µM and the IC50 ([1]; run 2) was greater than 25 µM. The IC50 cytotoxicity (DAPI nuclear signal decrease) ([2]; mean of runs) was > 25 µM (inactive), the IC50 cytotoxicity (DAPI nuclear signal decrease) ([2]; run 1) was greater than 25 µM and the IC50 cytotoxicity (DAPI nuclear signal decrease) ([2]; run 2) was greater than 25 µM.
With `CC1(C(=O)Nc2cccc(Oc3ccccc3)c2)Cc2c(-c3ccc4c(c3)OCO4)ccnc2O1` (stereo not drawn) the IC50 ([1]; mean of runs) was > 25 µM (inactive), the IC50 ([1]; run 1) was greater than 25 µM and the IC50 ([1]; run 2) was greater than 25 µM. For the same molecule, the IC50 cytotoxicity (DAPI nuclear signal decrease) ([2]; mean of runs) was > 25 µM (inactive), the IC50 cytotoxicity (DAPI nuclear signal decrease) ([2]; run 1) was greater than 25 µM and the IC50 cytotoxicity (DAPI nuclear signal decrease) ([2]; run 2) was greater than 25 µM.
With `C/C(=N\Nc1ccc(Cl)nn1)c1ccccc1O` the IC50 ([1]; mean of runs) was > 25 µM (inactive), the IC50 ([1]; run 1) was greater than 25 µM and the IC50 ([1]; run 2) was greater than 25 µM. For the same molecule, the IC50 cytotoxicity (DAPI nuclear signal decrease) ([2]; mean of runs) was > 25 µM (inactive), the IC50 cytotoxicity (DAPI nuclear signal decrease) ([2]; run 1) was greater than 25 µM and the IC50 cytotoxicity (DAPI nuclear signal decrease) ([2]; run 2) was greater than 25 µM.
